Common to all, as to assay: microbe, parasite or virus in culture
What all share (assay type): cell-based

In experiment [1] the test system is influenza A virus minigenome (PB2, PB1, PA, NP; luciferase reporter) in 293T cells, RNP_Alaska. The conditions noted are these: HEK-293T, 48 h.
The subject of experiment [2] is influenza A virus minigenome (PB2, PB1, PA, NP; luciferase reporter) in 293T cells, RNP_CAL. The conditions noted are these: HEK-293T, 48 h, read-out: RNP_CAL_EC50.
For experiment [3], the system named is influenza A virus minigenome (PB2, PB1, PA, NP; luciferase reporter) in 293T cells, RNP_Hubei. The conditions noted are these: HEK-293T, 48 h.

The source of these data is US12071441B2, “10-(di(phenyl)methyl)-4-hydroxy-8,9,9A,10-tetrahydro-7H-pyrrolo[1′,2′:4,5]pyrazino[1,2-b]pyridazine-3,5-dione derivatives and related compounds as inhibitors of the orthomyxovirus replication for treating influenza” (Novartis AG, priority 2018, dated 2024).

As to `COc1ccc([C@@H](c2ccc(F)cc2)[C@H]2[C@H]3CCCN3C(=O)c3c(O)c(=O)cnn32)cc1` [Example 26, (9aR,10S)-10-((S)-(4-fluorophenyl)(4-methoxyphenyl)methyl)-4-hydroxy-8,9,9a,10-tetrahydro-7H-pyrrolo[1′,2′:4,5]pyrazino[1,2-b]pyridazine-3,5-dione], the EC50 in experiment [1], in experiment [2] and in experiment [3] was 100 to 1000 nM throughout.
Consider `O=C1c2c(O)c(=O)cnn2[C@@H]([C@@H](c2ccc(F)c(F)c2)c2cccc(F)c2F)[C@H]2CCCN12` [Example 27, (9aR,10S)-10-((S)-(2,3-difluorophenyl)(3,4-difluorophenyl)methyl)-4-hydroxy-8,9,9a,10-tetrahydro-7H-pyrrolo[1′,2′:4,5]pyrazino[1,2-b]pyridazine-3,5-dione], for which the EC50 in experiment [1] is 100 to 1000 nM; in experiment [2] it was below 100 nM; in experiment [3] it was below 100 nM.
For `O=C1c2c(O)c(=O)cnn2[C@@H]([C@@H](c2ccccc2F)c2cccc(F)c2F)[C@H]2CCCN12` [Example 28, (9aR,10S)-10-((S)-(2,3-difluorophenyl)(2-fluorophenyl)methyl)-4-hydroxy-8,9,9a,10-tetrahydro-7H-pyrrolo[1′,2′:4,5]pyrazino[1,2-b]pyridazine-3,5-dione], the EC50 in experiment [1], in experiment [2] and in experiment [3] was below 100 nM each time.
Turning to `COc1cccc([C@@H](c2cccc(F)c2F)[C@H]2[C@H]3CCCN3C(=O)c3c(O)c(=O)cnn32)c1` [Example 29, (9aR,10S)-10-((S)-(2,3-difluorophenyl)(3-methoxyphenyl)methyl)-4-hydroxy-8,9,9a,10-tetrahydro-7H-pyrrolo[1′,2′:4,5]pyrazino[1,2-b]pyridazine-3,5-dione], the EC50 in experiment [1], in experiment [2] and in experiment [3] was 100 to 1000 nM throughout.
Regarding `COC(=O)OCOc1c2n(ncc1=O)[C@@H]([C@H](c1ccccc1)c1cccc(F)c1F)[C@H]1CCCN1C2=O` [Example 30, (((9aR,10S)-10-((R)-(2,3-difluorophenyl)(phenyl)methyl)-3,5-dioxo-3,5,8,9,9a,10-hexahydro-7H-pyrrolo[1′,2′:4,5]pyrazino[1,2-b]pyridazin-4-yl)oxy)methyl methyl carbonate], the EC50 in experiment [1], in experiment [2] and in experiment [3] was below 100 nM each time.
Consider `CC(C)C(=O)Oc1c2n(ncc1=O)[C@@H]([C@H](c1ccccc1)c1cccc(F)c1F)[C@H]1CCCN1C2=O` [Example 31, (9aR,10S)-10-((R)-(2,3-difluorophenyl)(phenyl)methyl)-3,5-dioxo-3,5,8,9,9a,10-hexahydro-7H-pyrrolo[1′,2′:4,5]pyrazino[1,2-b]pyridazin-4-yl isobutyrate], for which the EC50 in experiment [1], in experiment [2] and in experiment [3] was below 100 nM each time.
For `CC(C)C(=O)OCOc1c2n(ncc1=O)[C@@H]([C@H](c1ccccc1)c1cccc(F)c1F)[C@H]1CCCN1C2=O` [Example 32, (((9aR,10S)-10-((R)-(2,3-difluorophenyl)(phenyl)methyl)-3,5-dioxo-3,5,8,9,9a,10-hexahydro-7H-pyrrolo[1′,2′:4,5]pyrazino[1,2-b]pyridazin-4-yl)oxy)methyl isobutyrate], the EC50 in experiment [1], in experiment [2] and in experiment [3] was below 100 nM throughout.
As for `COC(=O)OC(C)Oc1c2n(ncc1=O)[C@@H]([C@H](c1ccccc1)c1cccc(F)c1F)[C@H]1CCCN1C2=O` (stereo partly drawn) [Example 33, 1-(((9aR,10S)-10-((R)-(2,3-difluorophenyl)(phenyl)methyl)-3,5-dioxo-3,5,8,9,9a,10-hexahydro-7H-pyrrolo[1′,2′:4,5]pyrazino[1,2-b]pyridazin-4-yl)oxy)ethyl methyl carbonate], the EC50 is 100 to 1000 nM in experiment [1], below 100 nM in experiment [2] and below 100 nM in experiment [3].
For `CC(C)OC(=O)Oc1c2n(ncc1=O)[C@@H]([C@H](c1ccccc1)c1cccc(F)c1F)[C@H]1CCCN1C2=O` [Example 34, (9aR,10S)-10-((R)-(2,3-difluorophenyl)(phenyl)methyl)-3,5-dioxo-3,5,8,9,9a,10-hexahydro-7H-pyrrolo[1′,2′:4,5]pyrazino[1,2-b]pyridazin-4-yl isopropyl carbonate], the EC50 in experiment [1], in experiment [2] and in experiment [3] was below 100 nM each time.
As to `CN(C)C(=O)Oc1c2n(ncc1=O)[C@@H]([C@H](c1ccccc1)c1cccc(F)c1F)[C@H]1CCCN1C2=O` [Example 35, (9aR,10S)-10-((R)-(2,3-difluorophenyl)(phenyl)methyl)-3,5-dioxo-3,5,8,9,9a,10-hexahydro-7H-pyrrolo[1′,2′:4,5]pyrazino[1,2-b]pyridazin-4-yl dimethylcarbamate], the EC50 in experiment [1], in experiment [2] and in experiment [3] was at least 1000 nM in each case.
As for `CN1CCN(C(=O)OCOc2c3n(ncc2=O)[C@@H]([C@H](c2ccccc2)c2cccc(F)c2F)[C@H]2CCCN2C3=O)CC1` [Example 36, (((9aR,10S)-10-((R)-(2,3-difluorophenyl)(phenyl)methyl)-3,5-dioxo-3,5,8,9,9a,10-hexahydro-7H-pyrrolo[1′,2′:4,5]pyrazino[1,2-b]pyridazin-4-yl)oxy)methyl 4-methylpiperazine-1-carboxylate], the EC50 in experiment [1], in experiment [2] and in experiment [3] was at least 1000 nM each time.
Regarding `COC(C)(C)CC(=O)Oc1c2n(ncc1=O)[C@@H]([C@H](c1ccccc1)c1cccc(F)c1F)[C@H]1CCCN1C2=O` [Example 39, (9aR,10S)-10-((R)-(2,3-difluorophenyl)(phenyl)methyl)-3,5-dioxo-3,5,8,9,9a,10-hexahydro-7H-pyrrolo[1′,2′:4,5]pyrazino[1,2-b]pyridazin-4-yl 3-methoxy-3-methylbutanoate], the EC50 in experiment [1], in experiment [2] and in experiment [3] was below 100 nM throughout.
Take `COC(C)(C)C(=O)Oc1c2n(ncc1=O)[C@@H]([C@H](c1ccccc1)c1cccc(F)c1F)[C@H]1CCCN1C2=O` [Example 40, (9aR,10S)-10-((R)-(2,3-difluorophenyl)(phenyl)methyl)-3,5-dioxo-3,5,8,9,9a,10-hexahydro-7H-pyrrolo[1′,2′:4,5]pyrazino[1,2-b]pyridazin-4-yl 2-methoxy-2-methylpropanoate]: the EC50 in experiment [1], in experiment [2] and in experiment [3] was below 100 nM in each case.
Regarding `COC(=O)C(C)(C)OC(=O)OCOc1c2n(ncc1=O)[C@@H]([C@H](c1ccccc1)c1cccc(F)c1F)[C@H]1CCCN1C2=O` [Example 42, methyl 2-((((((9aR,10S)-10-((R)-(2,3-difluorophenyl)(phenyl)methyl)-3,5-dioxo-3,5,8,9,9a,10-hexahydro-7H-pyrrolo[1′,2′:4,5]pyrazino[1,2-b]pyridazin-4-yl)oxy)methoxy)carbonyl)oxy)-2-methylpropanoate], the EC50 in experiment [1], in experiment [2] and in experiment [3] was 100 to 1000 nM in each case.
For the compound `Cc1oc(=O)oc1COc1c2n(ncc1=O)[C@@H]([C@H](c1ccccc1)c1cccc(F)c1F)[C@H]1CCCN1C2=O` [Example 43, (9aR,10S)-10-((R)-(2,3-difluorophenyl)(phenyl)methyl)-4-((5-methyl-2-oxo-1,3-dioxol-4-yl)methoxy)-8,9,9a,10-tetrahydro-7H-pyrrolo[1′,2′:4,5]pyrazino[1,2-b]pyridazine-3,5-dione], the EC50 in experiment [1], in experiment [2] and in experiment [3] was below 100 nM in each case.
Regarding `CN1CCN(C(=O)Oc2c3n(ncc2=O)[C@@H]([C@H](c2ccccc2)c2cccc(F)c2F)[C@H]2CCCN2C3=O)CC1` [Example 44, (9aR,10S)-10-((R)-(2,3-difluorophenyl)(phenyl)methyl)-3,5-dioxo-3,5,8,9,9a,10-hexahydro-7H-pyrrolo[1′,2′:4,5]pyrazino[1,2-b]pyridazin-4-yl 4-methylpiperazine-1-carboxylate], the EC50 in experiment [1] was 100 to 1000 nM; in experiment [2] it was 100 to 1000 nM; in experiment [3] it was below 100 nM.
On to `COC(=O)OCOc1c2n(ncc1=O)[C@@H]([C@H](c1cccc(F)c1)c1ccc(F)c(F)c1)[C@H]1CCCN1C2=O` [Example 45, (((9aR,10S)-10-((R)-(3,4-difluorophenyl)(3-fluorophenyl)methyl)-3,5-dioxo-3,5,8,9,9a,10-hexahydro-7H-pyrrolo[1′,2′:4,5]pyrazino[1,2-b]pyridazin-4-yl)oxy)methyl methyl carbonate], for which the EC50 in experiment [1], in experiment [2] and in experiment [3] was below 100 nM each time.
As for `O=C(Oc1c2n(ncc1=O)[C@@H]([C@H](c1ccccc1)c1cccc(F)c1F)[C@H]1CCCN1C2=O)N1CCCCC1` [Example 48, (9aR,10S)-10-((R)-(2,3-difluorophenyl)(phenyl)methyl)-3,5-dioxo-3,5,8,9,9a,10-hexahydro-7H-pyrrolo[1′,2′:4,5]pyrazino[1,2-b]pyridazin-4-yl piperidine-1-carboxylate], the EC50 in experiment [1], in experiment [2] and in experiment [3] was below 100 nM throughout.
For the compound `CC(C)(C)OC(=O)Oc1c2n(ncc1=O)[C@@H]([C@H](c1ccccc1)c1cccc(F)c1F)[C@H]1CCCN1C2=O` [Example 49, tert-butyl ((9aR,10S)-10-((R)-(2,3-difluorophenyl)(phenyl)methyl)-3,5-dioxo-3,5,8,9,9a,10-hexahydro-7H-pyrrolo[1′,2′:4,5]pyrazino[1,2-b]pyridazin-4-yl) carbonate], the EC50 in experiment [1], in experiment [2] and in experiment [3] was below 100 nM each time.
`COCCOC(=O)Oc1c2n(ncc1=O)[C@@H]([C@H](c1ccccc1)c1cccc(F)c1F)[C@H]1CCCN1C2=O` [Example 50, (9aR,10S)-10-((R)-(2,3-difluorophenyl)(phenyl)methyl)-3,5-dioxo-3,5,8,9,9a,10-hexahydro-7H-pyrrolo[1′,2′:4,5]pyrazino[1,2-b]pyridazin-4-yl (2-methoxyethyl) carbonate]: the EC50 in experiment [1], in experiment [2] and in experiment [3] was below 100 nM each time.
